This passage reports IC50 results from BindingDB's records for patent US9242996 (Novartis, 2016).

The experiment concerns the target Mitogen-activated protein kinase 1 (Homo sapiens, UniProt P28482). Nature of the experiment: Kinase Assay (New). The settings on record: pH 7.5. As to the method:
Compound dilution series are prepared in 100% DMSO. ERK2 is preincubated with compounds for 30 minutes at ambient temperature. Reaction is initiated by addition of a substrate cocktail of ERKtide peptide and ATP and is allowed to proceed for 2-3 hours at ambient temperature. […] Terminated reactions are read, after overnight incubation in the dark, on an EnVision Multilabel Plate Reader (PerkinElmer, Waltham, Mass.), with excitation and emission wavelengths set to 680 nm and 570 nm, respectively. IC50 values are determined using a four-parameter fit.

Chain of Mitogen-activated protein kinase 1 (P28482 whole entry): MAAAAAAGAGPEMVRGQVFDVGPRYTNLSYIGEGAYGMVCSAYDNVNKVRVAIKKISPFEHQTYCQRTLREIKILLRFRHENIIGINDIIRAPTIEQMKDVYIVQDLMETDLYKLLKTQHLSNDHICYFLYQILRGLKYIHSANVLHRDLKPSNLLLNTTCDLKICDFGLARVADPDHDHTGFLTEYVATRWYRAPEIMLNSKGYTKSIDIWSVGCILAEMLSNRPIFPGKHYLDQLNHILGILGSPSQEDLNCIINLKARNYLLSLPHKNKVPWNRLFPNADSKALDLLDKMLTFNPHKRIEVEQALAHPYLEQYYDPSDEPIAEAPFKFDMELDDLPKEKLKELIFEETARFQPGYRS

As for `Cc1nn(C)cc1-c1cnc(N)c(-c2ccc(C(=O)NCc3cccc(S(C)(=O)=O)c3)c(F)c2)n1` [US9242996, 145], 7.33 nM corresponded to half-maximal inhibition (IC50). That is a single-digit nanomolar value.
